Tested on: H9 embryonic stem cells
Assay: Microarray analysis of definitive endoderm stage cells on […] or MEFs +/- Wnt-3a (Table VI)
Type: cell-based, human
Conditions: log format
[1] = DE treatment in low serum on MATRIGEL
[2] = DE treatment in low serum on MEFS

Method: Controls for each group included cells plated on [sequence]—coated dishes and cultured in MEF-conditioned medium or cells plated on MEFs and cultured in ES medium. All groups contained three biological replicates and each biological replicate was repeated on two separate gene chips.
Sample preparation, hybridization, and image analysis were performed according to the Affymetrix Human Genome U133 Plus 2.0 Array. Following normalization and a log transformation, data analysis was performed using OmniViz® software (MA) and [sequence] […] Significant differences in gene expression between the samples were evaluated using analysis of variance and an F-test with adjusted P-value (Benjamini and Hochberg correction) of less-than or equal to 0.05. Only genes with a present call in at least one group were included in the analysis.

“Activin A: activin A (a member of the TGFβ superfamily), R&D Systems; 'w/o wnt' in Table VII = 100 ng/ml Activin A without Wnt3a” was tested, and the “mean normalized intensity: DKFZP566K1924 protein” value [1] was 2.882, the “mean normalized intensity: ESTs, Moderately similar to ALU2_HUMAN ALU SUBFAMILY SB SEQUENCE CONTAMINATION WARNING ENTRY (H. sapiens)” value [1] was 4.241 and the “mean normalized intensity: H. sapiens mRNA for B-HLH DNA binding protein.” value [1] was 5.43. The “mean normalized intensity: Homo sapiens BCL2-interacting killer (apoptosis-inducing) (BIK), mRNA.” value [1] was 4.3, the “mean normalized intensity: Homo sapiens Charot-Leyden crystal protein (CLC), mRNA.” value [1] was 3.301 and the “mean normalized intensity: Homo sapiens HES-related repressor protein 1 HERP1 mRNA, complete cds.” value [1] was 2.806. For the same substance, the “mean normalized intensity: Homo sapiens HSPC156 protein (HSPC156), mRNA.” value [1] was 0.7862, the “mean normalized intensity: Homo sapiens KIAA0469 gene product (KIAA0469), mRNA.” value [1] was 4.031 and the “mean normalized intensity: Homo sapiens PNAS-123 mRNA, complete cds” value [1] was 1.597. For the same substance, the “mean normalized intensity: Homo sapiens Wilms tumor 1 (WT1), transcript variant D, mRNA.” value [1] was 2.405, the “mean normalized intensity: Homo sapiens cDNA FLJ11398 fis, clone HEMBA1000637.” value [1] was 2.5268 and the “mean normalized intensity: Homo sapiens cDNA: FLJ22547 fis, clone HSI00356” value [1] was 4.294. The “mean normalized intensity: Homo sapiens cadherin 6, type 2, K-cadherin (fetal kidney) (CDH6), mRNA.” value [1] was 0.8248, the “mean normalized intensity: Homo sapiens chorionic somatomammotropin hormone 2 (CSH2), transcript variant 1, mRNA.” value [1] was 1.124 and the “mean normalized intensity: Homo sapiens chorionic somatomammotropin hormone 2 (CSH2), transcript variant 4, mRNA.” value [1] was 0.8122. The “mean normalized intensity: Homo sapiens galanin receptor 1 (GALR1), mRNA.” value [1] was 2.507, the “mean normalized intensity: Homo sapiens growth hormone 2 (GH2), transcript variant 2, mRNA.” value [1] was 0.9226 and the “mean normalized intensity: Homo sapiens hypothetical protein FLJ20075 (FLJ20075), mRNA.” value [1] was −0.3592. The “mean normalized intensity: Homo sapiens mRNA for SCCA2b, complete cds.” value [1] was 3.329, the “mean normalized intensity: Homo sapiens mRNA; cDNA DKFZp586P1124 (from clone DKFZp586P1124)” value [1] was 0.4856 and the “mean normalized intensity: Homo sapiens methyl-CpG binding protein MBD2 (MBD2) mRNA, complete cds.” value [1] was 0.4906. The “mean normalized intensity: Homo sapiens tachykinin, precursor 1 (TAC1), transcript variant beta, mRNA.” value [1] was 2.773, the “mean normalized intensity: Homo sapiens testis expressed sequence 14 (TEX14), mRNA.” value [1] was 3.512 and the “mean normalized intensity: Homo sapiens, Similar to LIM homeobox protein 8, clone IMAGE: 4839343, mRNA.” value [1] was −0.06288. For the same substance, the “mean normalized intensity: Homo sapiens, Similar to cadherin 6, type 2, K-cadherin (fetal kidney), clone MGC: 1470, mRNA, complete cds.” value [1] was 2.547, the “mean normalized intensity: Homo sapiens, Similar to hypothetical protein FLJ10058, clone MGC: 34305 IMAGE: 5167647, mRNA, complete cds.” value [1] was 1.698 and the “mean normalized intensity: Homo sapiens, Similar to hypothetical protein FLJ32001, clone MGC: 39559 IMAGE: 4828136, mRNA, complete cds.” value [1] was 0.5207. The “mean normalized intensity: Homo sapiens, clone IMAGE: 4067166, mRNA” value [1] was 0.1959, the “mean normalized intensity: Homo sapiens, clone IMAGE: 4828836, mRNA.” value [1] was 0.9729 and the “mean normalized intensity: Homo sapiens, serine (or cysteine) proteinase inhibitor, clade B (ovalbumin), member 3, clone MGC: 12244, mRNA, complete cds.” value [1] was 1.969. For the same substance, the “mean normalized intensity: Human mRNA upregulated during camptothecin-induced apoptosis of U937 cells.” value [1] was 0.4945, the “mean normalized intensity: Human platelet-derived growth factor alpha-receptor (PDGFRA) mRNA, exons 13-16” value [1] was 2.445 and the “mean normalized intensity: KIAA1151 protein” value [1] was 0.6425. The “mean normalized intensity: caldesmon 1” value [1] was 7.092, the “mean normalized intensity: nuclear receptor subfamily 1, group I, member 3” value [1] was 1.779 and the “mean normalized intensity: ESTs” value (DE treatment in low serum on MATRIGEL, gene line r2006) was 1.5857. The “mean normalized intensity: ESTs” value (DE treatment in low serum on MATRIGEL, gene line r2025) was 1.531, the “mean normalized intensity: ESTs” value (DE treatment in low serum on MATRIGEL, gene line r2032) was 0.1336 and the “mean normalized intensity: paternally expressed 3” value (DE treatment in low serum on MATRIGEL, gene line r2033) was 2.876. For the same substance, the “mean normalized intensity: ESTs” value (DE treatment in low serum on MATRIGEL, gene line r2038) was 3.262, the “mean normalized intensity: paternally expressed 3” value (DE treatment in low serum on MATRIGEL, gene line r2093) was 2.874 and the “mean normalized intensity: ESTs” value (DE treatment in low serum on MATRIGEL, gene line r2134) was −1.3795. For the same substance, the “mean normalized intensity: ESTs” value (DE treatment in low serum on MATRIGEL, gene line r2148) was 4.454, the “mean normalized intensity: DKFZP566K1924 protein” value [2] was 1.391 and the “mean normalized intensity: ESTs, Moderately similar to ALU2_HUMAN ALU SUBFAMILY SB SEQUENCE CONTAMINATION WARNING ENTRY (H. sapiens)” value [2] was 3.874. The “mean normalized intensity: H. sapiens mRNA for B-HLH DNA binding protein.” value [2] was 3.451, the “mean normalized intensity: Homo sapiens BCL2-interacting killer (apoptosis-inducing) (BIK), mRNA.” value [2] was 3.562 and the “mean normalized intensity: Homo sapiens Charot-Leyden crystal protein (CLC), mRNA.” value [2] was 2.1096. The “mean normalized intensity: Homo sapiens HES-related repressor protein 1 HERP1 mRNA, complete cds.” value [2] was 2.406, the “mean normalized intensity: Homo sapiens HSPC156 protein (HSPC156), mRNA.” value [2] was 1.296 and the “mean normalized intensity: Homo sapiens KIAA0469 gene product (KIAA0469), mRNA.” value [2] was 2.565. The “mean normalized intensity: Homo sapiens PNAS-123 mRNA, complete cds” value [2] was 1.847, the “mean normalized intensity: Homo sapiens Wilms tumor 1 (WT1), transcript variant D, mRNA.” value [2] was −2.435 and the “mean normalized intensity: Homo sapiens cDNA FLJ11398 fis, clone HEMBA1000637.” value [2] was 1.849. The “mean normalized intensity: Homo sapiens cDNA: FLJ22547 fis, clone HSI00356” value [2] was 2.095, the “mean normalized intensity: Homo sapiens cadherin 6, type 2, K-cadherin (fetal kidney) (CDH6), mRNA.” value [2] was −0.8763 and the “mean normalized intensity: Homo sapiens chorionic somatomammotropin hormone 2 (CSH2), transcript variant 1, mRNA.” value [2] was 2.616. The “mean normalized intensity: Homo sapiens chorionic somatomammotropin hormone 2 (CSH2), transcript variant 4, mRNA.” value [2] was 2.218, the “mean normalized intensity: Homo sapiens galanin receptor 1 (GALR1), mRNA.” value [2] was −0.338 and the “mean normalized intensity: Homo sapiens growth hormone 2 (GH2), transcript variant 2, mRNA.” value [2] was 1.4679. For the same substance, the “mean normalized intensity: Homo sapiens hypothetical protein FLJ20075 (FLJ20075), mRNA.” value [2] was −0.06528, the “mean normalized intensity: Homo sapiens mRNA for SCCA2b, complete cds.” value [2] was 0.568 and the “mean normalized intensity: Homo sapiens mRNA; cDNA DKFZp586P1124 (from clone DKFZp586P1124)” value [2] was −3.094. The “mean normalized intensity: Homo sapiens methyl-CpG binding protein MBD2 (MBD2) mRNA, complete cds.” value [2] was −1.702, the “mean normalized intensity: Homo sapiens tachykinin, precursor 1 (TAC1), transcript variant beta, mRNA.” value [2] was 1.483 and the “mean normalized intensity: Homo sapiens testis expressed sequence 14 (TEX14), mRNA.” value [2] was −1.3824. The “mean normalized intensity: Homo sapiens, Similar to LIM homeobox protein 8, clone IMAGE: 4839343, mRNA.” value [2] was −1.11, the “mean normalized intensity: Homo sapiens, Similar to cadherin 6, type 2, K-cadherin (fetal kidney), clone MGC: 1470, mRNA, complete cds.” value [2] was 2.134 and the “mean normalized intensity: Homo sapiens, Similar to hypothetical protein FLJ10058, clone MGC: 34305 IMAGE: 5167647, mRNA, complete cds.” value [2] was 0.2156. The “mean normalized intensity: Homo sapiens, Similar to hypothetical protein FLJ32001, clone MGC: 39559 IMAGE: 4828136, mRNA, complete cds.” value [2] was 1.269, the “mean normalized intensity: Homo sapiens, clone IMAGE: 4067166, mRNA” value [2] was 0.277 and the “mean normalized intensity: Homo sapiens, clone IMAGE: 4828836, mRNA.” value [2] was −1.484. The “mean normalized intensity: Homo sapiens, serine (or cysteine) proteinase inhibitor, clade B (ovalbumin), member 3, clone MGC: 12244, mRNA, complete cds.” value [2] was −1.566, the “mean normalized intensity: Human mRNA upregulated during camptothecin-induced apoptosis of U937 cells.” value [2] was −0.1892 and the “mean normalized intensity: Human platelet-derived growth factor alpha-receptor (PDGFRA) mRNA, exons 13-16” value [2] was 2.905. For the same substance, the “mean normalized intensity: KIAA1151 protein” value [2] was 1.009, the “mean normalized intensity: caldesmon 1” value [2] was 5.634 and the “mean normalized intensity: nuclear receptor subfamily 1, group I, member 3” value [2] was −0.1968. The “mean normalized intensity: ESTs” value (DE treatment in low serum on MEFS, gene line r2006) was −1.3, the “mean normalized intensity: ESTs” value (DE treatment in low serum on MEFS, gene line r2025) was 1.373 and the “mean normalized intensity: ESTs” value (DE treatment in low serum on MEFS, gene line r2032) was −1.566. For the same substance, the “mean normalized intensity: paternally expressed 3” value (DE treatment in low serum on MEFS, gene line r2033) was −0.0118, the “mean normalized intensity: ESTs” value (DE treatment in low serum on MEFS, gene line r2038) was 1.5682 and the “mean normalized intensity: paternally expressed 3” value (DE treatment in low serum on MEFS, gene line r2093) was −3.492.
